Data reported in patent US8163793B2, “Proline derivatives” (Hoffman-La Roche Inc., priority 2009, dated 2012).
Where a name gives a salt, the structure may show the parent alone.

How the values were obtained:
Cat L = Cat L (UniProt P07711); experiment: Cathepsin enzyme inhibition assay (fluorogenic peptide substrate Z-Val-Val-Arg-AMC), Cathepsin L; type: biochemical, human and mouse; settings: enzyme 1 nM, substrate 20 μM, pH 6.5; read-out: CatL IC50
Summary of the method: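 Cathepsin L at 1 nM was mixed with compound, then started with 20 μM Z-Val-Val-Arg-AMC in pH 6.5 potassium phosphate with EDTA, Triton X-100 and 5 mM DTT. AMC fluorescence (ex 360/em 465 nm) was followed over 20 min. IC50 is given in μM.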

Cathepsin S = Cathepsin S (UniProt P25774); experiment: Cathepsin enzyme inhibition assay (fluorogenic peptide substrate Z-Val-Val-Arg-AMC), Cathepsin S; type: biochemical, human and mouse; settings: enzyme 1 nM, substrate 20 μM, pH 6.5; read-out: CatS IC50
Summary of the method: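 Human or mouse cathepsin S (1 nM) was run in 100 mM potassium phosphate pH 6.5 with 5 mM EDTA, 0.001% Triton X-100 and 5 mM DTT. The rise in AMC fluorescence from cleavage was measured, and IC50 values were calculated by standard methods and expressed in μM.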

SMILES	IC50 (Cat L)	IC50 (Cathepsin S)
N#CCNC(=O)[C@@H]1C[C@@H](S(=O)(=O)c2ccccc2Cl)CN1C(c1ccccc1)C(F)(F)F (stereo partly drawn) [Example 57, (2S,4R)-4-(2-Chloro-benzenesulfonyl)-1-(2,2,2-trifluoro-1-phenyl-ethyl)-pyrrolidine-2-carboxylic acid cyanomethyl-amide]	17000 nM	14.3 nM
CC(C)(C#N)NC(=O)[C@@H]1C[C@@H](S(=O)(=O)c2ccccc2Cl)CN1 [Example 44, (2S,4R)-4-(2-Chloro-benzenesulfonyl)-pyrrolidine-2-carboxylic acid (cyano-dimethyl-methyl)-amide Hydrochloride]	≥ 25000 nM	152 nM
N#CC1(NC(=O)[C@@H]2C[C@@H](S(=O)(=O)c3ccc(-n4cccn4)cc3Cl)CN2C(=O)C2(C(F)(F)F)CC2)CC1 [Example 147, (2S,4R)-4-(2-Chloro-4-pyrazol-1-yl-benzenesulfonyl)-1-(1-trifluoromethyl-cyclopropanecarbonyl)-pyrrolidine-2-carboxylic acid (1-cyano-cyclopropyl)-amide]	13600 nM	0.4 nM
Cc1csc(C2(C(=O)N3C[C@H](S(=O)(=O)c4ccccc4Cl)C[C@H]3C(=O)NC3(C#N)CC3)CC2)n1 [Example 413, (2S,4R)-4-(2-Chloro-benzenesulfonyl)-1-[1-(4-methyl-thiazol-2-yl)-cyclopropanecarbonyl]-pyrrolidine-2-carboxylic acid (1-cyano-cyclopropyl)-amide]	1100 nM	0.31 nM
COc1ccc(N2C[C@H](S(=O)(=O)c3ccccc3C(F)(F)F)C[C@H]2C(=O)NC2(C#N)CC2)cc1 [Example 160, (2S,4R)-1-(4-Methoxy-phenyl)-4-(2-trifluoromethyl-benzenesulfonyl)-pyrrolidine-2-carboxylic Acid (1-cyano-cyclopropyl)-amide]	≥ 25000 nM	6 nM
CC1(C(=O)N2C[C@H](S(=O)(=O)CC3CC3)C[C@H]2C(=O)NC2(C#N)CC2)CC1 [Example 454, (2S,4R)-4-Cyclopropylmethanesulfonyl-1-(1-methyl-cyclopropanecarbonyl)-pyrrolidine-2-carboxylic acid (1-cyano-cyclopropyl)-amide]	≥ 25000 nM	1660 nM
Cc1cc(N2C[C@H](S(=O)(=O)c3ccc(F)cc3C(F)(F)F)C[C@H]2C(=O)NC2(C#N)CC2)n(-c2ccnc(Cl)c2)n1 [Example 266, (2S,4R)-1-[2-(2-Chloro-pyridin-4-yl)-5-methyl-2H-pyrazol-3-yl]-4-(4-fluoro-2-trifluoromethyl-benzenesulfonyl)-pyrrolidine-2-carboxylic acid (1-cyano-cyclopropyl)-amide]	22100 nM	1.3 nM
N#CC1(NC(=O)[C@@H]2C[C@@H](S(=O)(=O)c3ccc(Cl)cc3Cl)CN2C(=O)C2(C(F)(F)F)CC2)CC1 [Example 168, (2S,4R)-4-(2,4-Dichloro-benzenesulfonyl)-1-(1-trifluoromethyl-cyclopropanecarbonyl)-pyrrolidine-2-carboxylic acid (1-cyano-cyclopropyl)-amide]	8800 nM	0.6 nM
N#CC1(NC(=O)[C@@H]2C[C@@H](S(=O)(=O)c3ccc(N4CCC(F)(F)C4)cc3Cl)CN2)CC1 [Example 136, (2S,4R)-4-[2-Chloro-4-(3,3-difluoro-pyrrolidin-1-yl)-benzenesulfonyl]-pyrrolidine-2-carboxylic acid (1-cyano-cyclopropyl)-amide formiate]	12600 nM	2.2 nM
CN1CCN(c2ccc(S(=O)(=O)[C@@H]3C[C@@H](C(=O)NC4(C#N)CC4)N(C(=O)C4(C)CC4)C3)c(C(F)(F)F)c2)CC1 [Example 272, (2S,4R)-1-(1-Methyl-cyclopropanecarbonyl)-4-[4-(4-methyl-piperazin-1-yl)-2-trifluoromethyl-benzenesulfonyl]-pyrrolidine-2-carboxylic acid (1-cyano-cyclopropyl)-amide]	17100 nM	0.6 nM
